{
  "source": "patent US11026972B2",
  "about": "“Methods for generating macrophages with enhanced cancer phagocytosis” (Georgia State University Research Foundation, Inc., priority 2016, dated 2021)",
  "molecules": {"B1": {"name": "IL-17: recombinant murine cytokine interleukin IL-17 (also known as IL-17A), PeproTech (protein, UniProt Q62386 26-158, looked up)", "Interleukin-17A": "AAIIPQSSACPNTEAKDFLQNVKVNLKVFNSLGAKVSSRRPSDYLNRSTSPWTLHRNEDPDRYPSVIWEAQCRHQRCVNAEGKLDHHMNSVLIQQEILVLKREPESCPFTFRVEKMLVGVGCTCVASIVRQAA"}},
  "key": {"[1]": {"system": "SIRPα", "conditions": "following LPS stimulation; cited from earlier work"}, "[2]": {"system": "Syk", "assay": "Syk phosphorylation at Y519/520 in PEMs", "assay_type": "cell-based, mouse", "description": "FIGS. 5A-5H include data related to our experiments on the role of Syk in phagocytic activation. […] PEMs were treated with LPS and cytokines in the presence of various inhibitors. After washing, inhibitor-free macrophages were tested for phagocytosis toward RBCs. […] PEMs treated with LPS and activating cytokines, or together with IL-10, were tested for total Syk and phosphorylated Syk (Syk^pY, specific at Y519/520). FIG. 5D describes PMA-induced macrophages phagocytosis toward RBCs. WT and SIRPα^−/− PEMs were treated with PMA (37° C., 30 min) before testing phagocytosis toward RBCs. FIG. 5E is a schematic depiction of PKC-Syk-mediated macrophage phagocytic activation toward self. […] Left: Inhibition of Syk by piceatannol and R406 prevented PMA-induced phagocytic activation. […] Error bars are ±SEM. ***P<0.001 vs. the respective controls. […] LPS-treated WT PEMs were further briefly treated with pervanadate before testing for phagocytosis toward RBCs. Error bars are ±SEM. ***P<0.001 vs. the respective controls. […] Data presented in each panel represent at least three independent experiments with n≥4, if applicable.\nMultiple pharmacological inhibitors were tested for their effects on LPS and cytokine-induced activation of macrophage phagocytosis toward self. […] For example, inhibition of JAKs blocked IL-6 and IL-17, but not LPS and TNFα, for activation of PEM phagocytosis. […]"}, "[3]": {"system": "splenic macrophages, PEMs and BMDMs", "assay": "Ex vivo macrophage phagocytosis toward RBCs and other self-cells after activation", "assay_type": "cell-based, mouse", "conditions": "for conversion to potent phagocytes toward self: PEMs and BMDMs from WT and mutant mice; for phagocytosis toward CD47^− RBCs of culture-retarded WT spleen macrophages: after 2 days of culturing; for phagocytosis toward RBCs: splenic macrophages from SIRPα^−/− or CD47^−/− mice", "how_it_was_run": "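Mouse splenic or peritoneal macrophages (2 h adherent selection) or BMDMs (M-CSF ~10 ng/ml, 5-6 days) were co-incubated 30 min at 37 °C with CFSE-labelled RBCs (1:5-10) or other cells (1:1-2). Uptake was scored by fluorescence microscopy and/or FACS with anti-F4/80 or anti-CD11b macrophage labelling.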"}, "[4]": {"system": "cell surface LRP1 and CRT on PEMs", "assay": "Macrophage cell surface CRT and LRP1 by FACS", "assay_type": "cell-based, mouse", "conditions": "after treatment with phagocytic activation factor", "description": "FIGS. 6A-6D include data related to our investigation of possible phagocytic receptors on macrophages for phagocytosing healthy self-cells. […] PEM (unstimulated) phagocytosis toward apoptotic B16 cells was tested in the presence of same antibodies and RAP as in A. Error bars are ±SEM. ***P<0.001 vs. phagocytosis in the presence of control IgG. […] PEMs, with or without (ctl.) treatment with LPS, IL-17, IL-6, or PMA, were labeled for cell surface LRP1 and CRT followed by FACS. Increased and decreased expressions were marked by arrows. […] Activated PEM phagocytosis toward RBCs was tested in the presence of antibodies against SR-A, Fc receptor Cd16/32 (10 μg/mL of each), inhibitors against SR-B (BLT1, 5 μM), dectin (laminarin, 100 μg/mL), complement (heparin, 40 U/mL), and antibody against Cd11b (10 μg/mL). Error bars are ±SEM. ***P<0.001 vs. the respective control without inhibition. Data presented in each panel represent at least three independent experiments with n≥4, if applicable."}},
  "data": [
    {"molecule": "lipopolysaccharide [LPS]", "values": [
      {"measurement": "SIRPα expression in macrophages", "setting": "[1]", "result": "decreased"},
      {"measurement": "Syk phosphorylation (Syk^PY, Y519/520)", "setting": "[2]", "result": "increases in Syk^PY"},
      {"measurement": "conversion to potent phagocytes toward self", "setting": "[3]", "result": "converted all PEMs and BMDMs"},
      {"measurement": "phagocytosis of other cell types", "setting": "[3]; activated macrophages, CD47-SIRPα-controllable manner", "result": "capable of phagocytizing murine splenocytes, B16 melanoma cells, and EL4 lymphoblasts"},
      {"measurement": "phagocytosis toward CD47^− RBCs of culture-retarded WT spleen macrophages", "setting": "[3]", "result": "dramatically rekindled"},
      {"measurement": "phagocytosis toward RBCs", "setting": "[3]", "result": "rapidly induced their phagocytosis toward RBCs"},
      {"measurement": "cell surface CRT or LRP1 on PEMs", "setting": "[4]", "result": "induced an increase in CRT"}
    ]},
    {"molecule": "B1", "values": [
      {"measurement": "conversion to potent phagocytes toward self", "setting": "[3]", "result": "converted all PEMs and BMDMs"},
      {"measurement": "phagocytosis toward CD47^− RBCs of culture-retarded WT spleen macrophages", "setting": "[3]", "result": "dramatically rekindled"},
      {"measurement": "phagocytosis toward RBCs", "setting": "[3]", "result": "rapidly induced their phagocytosis toward RBCs"}
    ]}
  ]
}
